Laboratory results as given in patent US6800467B1, “Polypeptides having aminopeptidase activity and nucleic acids encoding same” (Novozymes Biotech, Inc., priority 1997, dated 2004).

Biological target: T1, aminopeptidase II (Aspergillus oryzae, UniProt Q2ULM2)
T1 construct: the first 15 amino acids likely comprise a secretory signal peptide; made in house; host or cells: Aspergillus oryzae JaL142-6 (alkaline protease-deficient), plasmid pEJG19; purified from shake flask supernatant on Q-Sepharose
Test: Inhibition of the aminopeptidase II with 1,10-phenanthroline, Leu-pNA as substrate
Format: biochemical
Conditions: pH 7.5
Protocol: Inhibition of the aminopeptidase II with 1,10-phenanthroline was evaluated using Leu-pNA as substrate at pH 7.5 in 50 mM Tris pH 7.5 buffer where hydrolysis was monitored at 405 nm. A 200 mM solution of 1,10-phenanthroline in methanol was prepared. The inhibition reaction was conducted by mixing 100 μl of 2 mg of Leu-pNA per ml of 50 mM sodium phosphate pH 7.5 solution and 10 μl of the 1,10-phenanthroline solution with 100 μl of aminopeptidase II diluted 5-fold in 50 mM sodium phosphate pH 7.5 buffer. A control was run where 10 μl of 20 mM Tris pH 7.6 buffer was used in place of the 1,10-phenantholine solution.

T1 sequence (Q2ULM2 17-496): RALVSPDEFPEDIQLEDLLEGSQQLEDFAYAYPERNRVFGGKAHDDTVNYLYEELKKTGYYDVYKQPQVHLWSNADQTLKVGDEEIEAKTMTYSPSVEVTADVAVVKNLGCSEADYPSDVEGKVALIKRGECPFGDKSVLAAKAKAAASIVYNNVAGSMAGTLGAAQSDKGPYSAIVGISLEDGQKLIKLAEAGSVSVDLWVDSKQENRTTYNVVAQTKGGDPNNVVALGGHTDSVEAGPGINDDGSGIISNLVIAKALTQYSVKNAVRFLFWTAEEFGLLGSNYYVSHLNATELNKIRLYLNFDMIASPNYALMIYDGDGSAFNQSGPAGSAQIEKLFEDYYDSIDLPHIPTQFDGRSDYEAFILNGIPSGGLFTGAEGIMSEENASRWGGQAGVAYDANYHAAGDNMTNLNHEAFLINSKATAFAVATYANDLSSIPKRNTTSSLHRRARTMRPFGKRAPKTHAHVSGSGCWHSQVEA

c1cnc2c(c1)ccc1cccnc12 [1,10-phenanthroline]
Inhibition of the aminopeptidase II (Leu-pNA as substrate, 10 μl of 200 mM 1,10-phenanthroline in methanol): inhibited | rate of hydrolysis of Leu-pNA in the presence of 1,10-phenanthroline (control without inhibitor 285 mOD/minute): 21 mOD/minute
